Experimental data: US20090042725A1, “Fungicidal Mixtures Based on 3,5-Disubstituted N-Biphenyl-Pyrazolcarboxamides” (BASF Aktiengesellschaft, priority 2005, published 2009)
Values belong to the molecule of their own block, whether it stands above or below them.

What was measured:
[1] = tested on: Botrytis cinerea; assay: Activity against gray mold on bell pepper leaves caused by Botrytis cinerea, 1 day protective application; format: in vivo; settings: bell pepper seedlings, sprayed 1 day before inoculation, 4 mg/l, rated after 5 days, efficacy in % of untreated control (100% infection), read-out: Observed activity (% infection)
Method: (§1) The active compounds, separately or jointly, were prepared as a stock solution comprising 25 mg of active compound which was made up to 10 ml using a mixture of acetone and/or dimethyl sulfoxide and the emulsifier Uniperol® EL (wetting agent having an emulsifying and dispersing action based on ethoxylated alkylphenols) in a ratio by volume of solvent/emulsifier of 99:1. The mixture was then made up to 100 ml with water. This stock solution was diluted with the solvent/emulsifier/water mixture described to give the concentration of active compound stated below.
(§2) Alternatively, the active compounds epoxiconazole and pyraclostrobin were used as a commercial formulation and diluted with water to the stated active compound concentrations.
(§3) The visually determined percentages of infected leaf areas were converted into efficacies in % of the untreated control.
(§4) The efficacy (E) is calculated as follows using Abbot's formula: […]
(§5) α corresponds to the fungicidal infection of the treated plants in % and β corresponds to the fungicidal infection of the untreated (control) plants in %
(§6) An efficacy of 0 means that the infection level of the treated plants corresponds to that of the untreated control plants; an efficacy of 100 means that the treated plants were not infected.
(§7) The expected efficacies of active compound mixtures were determined using Colby's formula [R. S. Colby, “Calculating synergistic and antagonistic responses of herbicide combinations”, Weeds 15, 20-22 (1967)] and compared with the observed efficacies. […]
Bell pepper seedlings of the cultivar “Neusiedler Ideal Elite” were, after 2-3 leaves were well developed, sprayed to runoff point with an aqueous suspension in the active compound concentration stated below. […] After 5 days, the extent of the fungal infection on the leaves could be determined visually in %.

[2] = tested on: Phakopsora pachyrhizi; assay: Curative activity against soybean rust caused by Phakopsora pachyrhizi; format: in vivo; settings: soybean seedlings cultivar Oxford, sprayed 2 days after inoculation, 4 mg/l, rated after 14 days, efficacy in % of untreated control (90% infection), read-out: Observed activity (% infection)
Method: as §1, §2, §3, §4, §7
Leaves of potted soybean seedlings of the cultivar “Oxford” were inoculated with a spore suspension of soybean rust (Phakopsora pachyrhizi). […] The extent of the rust fungus development on the leaves was then determined

[3] = tested on: Puccinia recondite; assay: Protective activity against Puccinia recondite on wheat (brown rust of wheat); format: in vivo; settings: wheat seedlings cultivar Kanzler, sprayed 1 day before inoculation, efficacy in % of untreated control (90% infection), read-out: Observed activity (% infection); for inhibition at 1 µg/mL: 1 mg/l; for inhibition at 4 µg/mL: 4 mg/l
Method: as §1, §2, §3, §4, §5, §6
The expected efficacies of active compound mixtures were determined using Colby's formula [R. S. Colby, “Calculating synergistic and antagonistic responses of herbicide combinations”, Weeds 15, 20-22 (1967)] and compared with the observed efficacies.
E=x+y−x·y/100 Colby's formula • E expected efficacy, expressed in % of the untreated control, when using the mixture of the active compounds A and B at the concentrations a and b; • x efficacy, expressed in % of the untreated control, when using the active compound A at the concentration a; • y efficacy, expressed in % of the untreated control, when using the active compound B at the concentration b;
Leaves of potted wheat seedlings of the cultivar “Kanzler” were sprayed to runoff point with an aqueous suspension having the concentration of active compound stated below. The next day the treated plants were inoculated with a spore suspension of brown rust of wheat (Puccinia recondite). The plants were then placed in a chamber at high atmospheric humidity (90 to 95%) at 20 to 22° C. for 24 hours. During this time, the spores germinated and the germ tubes penetrated into the leaf tissue. The next day, the test plants were returned to the greenhouse and cultivated at temperatures between 20 and 22° C. and 65 to 70% relative atmospheric humidity for a further 7 days. The extent of the rust fungus development on the leaves was then determined visually.

[4] = tested on: Alternaria solani; assay: Activity against early blight on tomatoes caused by Alternaria solani; format: in vivo; settings: tomato plants, sprayed 1 day before infection, rated after 5 days, efficacy in % of untreated control (90% infection), read-out: Observed activity (% infection); for inhibition at 63 µg/mL: 63 mg/l
Method: as §1, §2, §3, §4, §5, §6, §7
Leaves of potted tomato plants were sprayed to runoff point with an aqueous suspension having the concentration of active compounds stated below. […] After 5 days, the disease on the untreated, but infected control plants had developed to such an extent that the infection could be determined visually in %.

[5] = tested on: Erysiphe [syn. Blumeria] graminis forma specialis. tritici; assay: Activity against mildew of wheat caused by Erysiphe [syn. Blumeria] graminis forma specialis. tritici; format: in vivo; settings: wheat seedlings, sprayed 24 hours before dusting with spores, 1 mg/l, rated after 7 days; efficacy in % of untreated control (90% infection); read-out: Observed activity (% infection)
Method: as §1, with “below. […]” for “below.”
as §3, §4, §7
Leaves of potted wheat seedlings were sprayed to runoff point with an aqueous suspension having the active compound concentration stated below. […] After 7 days, the extent of the mildew development was determined visually in % infection of the entire leaf area.

Compound: Fc1ccc([C@]2(Cn3cncn3)O[C@H]2c2ccccc2Cl)cc1 (racemic) [epoxiconazole, (2RS,3SR)-1-[3-(2-chlorophenyl)-2,3-epoxy-2-(4-fluorophenyl)propyl]-1H-1,2,4-triazole]
inhibition at 4 µg/mL [1]: 10%

Compound: CC1CCN(c2c(-c3c(F)cc(F)cc3F)c(Cl)nc3ncnn23)CC1 [5-chloro-7-(4-methylpiperidin-1-yl)-6-(2,4,6-trifluorophenyl)-[1,2,4]triazolo[1,5-a]pyrimidine]
inhibition at 4 µg/mL [2]: 28%

melting point: 101 to 105 °C
Compound: Cn1cc(C(=O)Nc2ccccc2-c2cc(Cl)cc(Cl)c2)c(C(F)(F)F)n1 [No. I.1, 1-methyl-3-trifluoromethyl-N-(ortho-(3,5-dichlorophenyl)phenyl)-pyrazole-4-carboxamide]
inhibition at 4 µg/mL [1]: 0%
inhibition at 1 µg/mL [3]: 52%

Compound: Cn1cc(C(=O)Nc2ccccc2-c2cc(Cl)cc(Cl)c2)c(C(F)F)n1 [No. I.4, N-(3′,5′-dichlorobiphenyl-2-yl)-1-methyl-3-difluoromethyl-1H-pyrazole-4-carboxamide]
inhibition at 16 µg/mL ([4]; 16 mg/l): 44%
inhibition at 1 µg/mL [5]: 0%
inhibition at 1 µg/mL [3]: 56%

Compound: COc1ccc(C(=CC(=O)N2CCOCC2)c2ccc(Cl)cc2)cc1OC [dimethomorph, 3-(4-chlorophenyl)-3-(3,4-dimethoxyphenyl)-1-morpholin-4-yl-propenone]
inhibition at 63 µg/mL [4]: 0%
inhibition at 4 µg/mL [3]: 5%

Compound: COc1cc(C)c(C(=O)c2c(OC)ccc(Br)c2C)c(OC)c1OC [metrafenone, 3′-bromo-2,3,4,6′-tetramethoxy-2′,6-dimethylbenzophenone]
inhibition at 63 µg/mL [4]: 0%
inhibition at 4 µg/mL [3]: 0%

Compound: COC(=O)N(OC)c1ccccc1COc1ccn(-c2ccc(Cl)cc2)n1 [pyraclostrobin, methyl N-{2-[1-(4-chlorophenyl)-1H-pyrazol-3-yloxymethyl]phenyl}(N-methoxy)carbamate]
inhibition at 4 µg/mL [1]: 0%
inhibition at 1 µg/mL [3]: 0%
